Measured values taken from US6346536B1, “Poly(ADP-ribose) polymerase inhibitors and method for treating neural or cardiovascular tissue damage using the same” (Guilford Pharmaceuticals Inc., priority 1997, dated 2002).
Read-outs that look alike come from different tables or passages of the source.

Key:
PARP = details: read-out: IC50 for inhibiting PARP; reported by Suto et al.; cited from earlier work
[1] = target: T1, purified recombinant human PARP (Homo sapiens, UniProt P09874); experiment: PARP enzyme assay using purified recombinant human PARP, [3H]NAD incorporation; assay type: biochemical; details: 25° C., 15 minutes, 3.0 micromolar [3H]NAD, read-out: Approximate IC50's
T1 construct: purchased Trevigen (Gaithersburg, Md.)
T1 sequence (P09874 whole entry): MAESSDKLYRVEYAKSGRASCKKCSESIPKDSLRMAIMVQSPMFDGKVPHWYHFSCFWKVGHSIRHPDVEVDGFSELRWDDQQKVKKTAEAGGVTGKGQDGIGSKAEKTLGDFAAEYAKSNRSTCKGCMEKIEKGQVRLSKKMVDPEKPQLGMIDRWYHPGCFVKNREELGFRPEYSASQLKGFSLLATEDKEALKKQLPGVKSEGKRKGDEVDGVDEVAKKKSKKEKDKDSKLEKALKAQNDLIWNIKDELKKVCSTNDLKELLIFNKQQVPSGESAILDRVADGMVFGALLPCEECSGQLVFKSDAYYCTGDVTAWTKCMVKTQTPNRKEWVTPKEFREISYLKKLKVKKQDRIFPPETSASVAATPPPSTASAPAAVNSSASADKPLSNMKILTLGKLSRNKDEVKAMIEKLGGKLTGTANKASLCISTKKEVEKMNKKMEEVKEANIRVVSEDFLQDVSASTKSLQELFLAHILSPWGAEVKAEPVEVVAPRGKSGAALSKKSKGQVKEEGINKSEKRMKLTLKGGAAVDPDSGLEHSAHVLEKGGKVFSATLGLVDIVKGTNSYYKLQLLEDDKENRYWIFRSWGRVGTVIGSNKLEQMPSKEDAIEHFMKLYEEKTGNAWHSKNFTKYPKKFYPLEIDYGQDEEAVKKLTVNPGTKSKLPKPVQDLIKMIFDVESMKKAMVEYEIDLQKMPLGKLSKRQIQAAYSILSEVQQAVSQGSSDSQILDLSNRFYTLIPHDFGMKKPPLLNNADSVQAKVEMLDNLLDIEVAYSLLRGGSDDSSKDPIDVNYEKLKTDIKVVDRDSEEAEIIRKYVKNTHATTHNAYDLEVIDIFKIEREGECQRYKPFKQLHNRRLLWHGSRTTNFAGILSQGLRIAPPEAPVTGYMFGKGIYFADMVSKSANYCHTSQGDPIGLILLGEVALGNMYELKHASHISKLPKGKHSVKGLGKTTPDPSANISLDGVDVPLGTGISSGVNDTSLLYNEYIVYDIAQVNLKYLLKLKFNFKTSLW
Procedure: The reaction is initiated by incubating the mixture at 25° C. After 15 minutes' incubation, the reaction is terminated by adding 500 microliters of ice cold 20% (w/v) trichloroacetic acid. The precipitate formed is transferred onto a glass fiber filter (Packard Unifilter-GF/B) and washed three times with ethanol. After the filter is dried, the radioactivity is determined by scintillation counting.

[2] = test system: cell viability, glucose metabolism, and DNA synthesis; details: Milam et al., Science 1984; cited from earlier work
[3] = test system: ischemia and reperfusion of the heart; details: rabbits, cited from earlier work

For O=C1NCCc2c(OCCCCN3CCCCC3)cccc21 [3,4-dihydro-5-[4-(1-piperidinyl)butoxy]1(2H)-isoquinolinone], the IC50 (PARP) is listed as 0.04 µM.
Compound COC(=O)c1c[nH]c(=O)c2ccccc12 has an IC50 [1] of 0.8 µM.
Work on O=c1[nH]ccc2c([N+](=O)[O-])cccc12 yielded an IC50 [1] of 10 µM.
For NC(=O)c1ccccc1 [benzamide], the “side effects on other metabolic processes” value [2] is listed as “affect cell viability, glucose metabolism, and DNA synthesis”.
In the case of NC(=O)c1cccc(N)c1 [3-aminobenzamide], the “reduction in infarct size in the heart” value ([3]; single injection 10 mg/kg, one minute before occlusion or one minute before reperfusion) is listed as 32-42% and the “side effects on other metabolic processes” value [2] is listed as “affect cell viability, glucose metabolism, and DNA synthesis”.
For Oc1cccc2c(O)nccc12 [1,5-dihydroxyisoquinoline], the “reduction in infarct size” value ([3]; single injection 1 mg/kg) is given as 38-48%.
Compound O=c1[nH]cc([N+](=O)[O-])c2ccccc12 has an IC50 [1] of 5 µM.
Compound O=C(O)c1c[nH]c(=O)c2ccccc12 has an IC50 [1] of 10 µM.
Compound O=c1[nH]c(-c2ccccc2)cc2ccccc12 has an IC50 ([1]; unit μm [sic]) of 30 µM.
